Molecular target: T1, Human KDR (Homo sapiens, UniProt P35968)
T1 construct: expressed in transfected cells; host or cells: NIH3T3 cells (mouse fibroblasts)
Test: Inhibition of KDR phosphorylation in human KDR-transfected NIH3T3 cells (ELISA)
Assay type: cell-based
Conditions: for Selection ratio (KDR phosphorylation IC50 / c-fms phosphorylation IC50): class 0-3; for IC50: human KDR-transfected NIH3T3 cells, VEGF 100 ng/ml, ELISA, read-out: KDR phosphorylation 50% inhibitory concentration (IC50)
Description: Human KDR-transfected NIH3T3 cells (Sawano A et al., Cell Growth & Differentiation, 7, 213-221 (1996)) were cultured in a DMEM medium containing 10% fetal calf serum (purchased from GIBCO BRL) within a 5% carbon dioxide incubator until 50 to 70% confluent. The harvested cells were seeded into wells, containing the same medium, in a collagen type 1 coat 96-well flat-bottom plate in an amount of 1.5×10^4 per well, and cultured at 37° C. overnight. The medium was replaced with a 0.1% fetal calf serum-containing DMEM medium. The test compound dissolved in dimethyl sulfoxide was added to each well, and the cultivation was continued at 37° C. for additional one hr. A human recombinant vascular endothelial growth factor (hereinafter abbreviated to “VEGF”) was added to a final concentration of 100 ng/ml, followed by stimulation of cells at 37° C. for 2 min. The medium was removed, and the cells were washed with phosphate buffered saline (pH 7.4). A solubilization buffer (50 μl) (20 mM HEPES (pH 7.4), 150 mM NaCl, 0.2% Triton X-100, 10% glycerol, 5 mM sodium orthovanadylate, 5 mM disodium ethylenediaminetetraacetate, and 2 mM Na4P2O7) was then added thereto. The mixture was shaken at 4° C. for 2 hr to prepare a cell extract.
Separately, phosphate buffered saline (50 μl, pH 7.4) containing 5 μg/ml of anti-phospho-tyrosine antibody (PY20; purchased from Transduction Laboratories) was added to a microplate for ELISA (Maxisorp; purchased from NUNC), followed by standing at 4° C. overnight to be immobilized on the wells. After washing of the plate, 300 μl of a blocking solution was added, followed by standing at room temperature for 2 hr to perform blocking. After washing, the whole cell extract was transferred and was allowed to stand at 4° C. overnight. After washing, an anti-KDR antibody (purchased from Santa Cruz Biotechnology) was allowed to react at room temperature for one hr. Further, after washing, a peroxidase-labeled anti-rabbit Ig antibody (purchased from Amersham) was allowed to react at room temperature for one hr. After washing, a chromophoric substrate for peroxidase (purchased from Sumitomo Bakelite Co., Ltd.) was added thereto to initiate a reaction. After a suitable level of color development, a reaction termination solution was added to stop the reaction, and the absorbance at 450 nm was measured with a microplate reader. The KDR phosphorylation activity for each well was determined by presuming the absorbance without the addition of the test compound and with the addition of VEGF to be 100% KDR phosphorylation activity and the absorbance without the addition of the test compound and VEGF to be 0% KDR phosphorylation activity. The concentration of the test compound was varied on several levels, the KDR phosphorylation inhibitory rate was determined for each case, and the concentration of the test compound necessary for inhibiting 50% of KDR phosphorylation (IC50) was calculated.

T1 sequence (P35968 20-1356): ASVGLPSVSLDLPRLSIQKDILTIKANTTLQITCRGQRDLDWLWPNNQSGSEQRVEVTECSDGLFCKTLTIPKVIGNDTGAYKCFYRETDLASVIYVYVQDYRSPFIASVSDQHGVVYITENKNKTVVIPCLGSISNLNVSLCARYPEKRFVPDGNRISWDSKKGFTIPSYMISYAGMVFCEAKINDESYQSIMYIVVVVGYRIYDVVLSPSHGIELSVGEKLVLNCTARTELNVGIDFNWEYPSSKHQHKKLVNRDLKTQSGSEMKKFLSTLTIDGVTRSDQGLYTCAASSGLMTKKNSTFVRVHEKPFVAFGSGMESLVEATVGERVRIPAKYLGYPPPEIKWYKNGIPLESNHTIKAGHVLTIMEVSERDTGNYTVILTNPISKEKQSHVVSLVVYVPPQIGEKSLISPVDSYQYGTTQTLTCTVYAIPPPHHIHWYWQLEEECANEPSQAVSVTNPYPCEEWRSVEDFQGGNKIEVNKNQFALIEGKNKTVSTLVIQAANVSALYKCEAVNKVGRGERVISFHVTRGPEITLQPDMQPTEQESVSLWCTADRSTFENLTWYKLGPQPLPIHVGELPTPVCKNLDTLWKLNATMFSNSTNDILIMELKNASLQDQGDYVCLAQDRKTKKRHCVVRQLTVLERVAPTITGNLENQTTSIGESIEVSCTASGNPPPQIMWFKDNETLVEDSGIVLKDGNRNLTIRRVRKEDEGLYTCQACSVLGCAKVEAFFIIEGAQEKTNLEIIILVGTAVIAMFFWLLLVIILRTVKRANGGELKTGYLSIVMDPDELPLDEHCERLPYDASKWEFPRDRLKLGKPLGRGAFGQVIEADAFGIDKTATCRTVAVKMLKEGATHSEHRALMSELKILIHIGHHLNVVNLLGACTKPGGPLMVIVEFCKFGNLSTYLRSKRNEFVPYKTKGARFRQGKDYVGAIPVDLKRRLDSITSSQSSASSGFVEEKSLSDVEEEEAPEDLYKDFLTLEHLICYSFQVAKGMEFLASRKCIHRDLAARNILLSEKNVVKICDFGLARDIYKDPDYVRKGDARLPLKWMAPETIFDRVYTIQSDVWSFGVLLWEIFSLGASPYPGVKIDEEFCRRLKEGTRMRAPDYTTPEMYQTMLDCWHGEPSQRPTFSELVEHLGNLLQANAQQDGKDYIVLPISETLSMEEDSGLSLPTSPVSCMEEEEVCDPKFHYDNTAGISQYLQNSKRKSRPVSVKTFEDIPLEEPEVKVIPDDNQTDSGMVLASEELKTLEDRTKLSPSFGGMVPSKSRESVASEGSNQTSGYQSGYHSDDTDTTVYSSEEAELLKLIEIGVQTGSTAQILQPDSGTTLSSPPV

SMILES | Selection ratio (KDR phosphorylation IC50 / c-fms phosphorylation IC50) | IC50 [nM]
COc1cc2nccc(Oc3ccc(NC(=O)N[C@H](C)c4ccccc4OC)cc3)c2cc1OC [Example 52, N-{4-[(6,7-Dimethoxy-4-quinolyl)oxy]phenyl}-N′-[(1R)-1-(2-methoxyphenyl)ethyl]urea] | 0 (KDR phosphorylation 50% inhibitory concentration [μM]/c-fms phosphorylation 50% inhibitory concentration [μM] was less than 5) | 7.2
COc1cc2nccc(Oc3ccc(NC(=O)NC(C)c4ccc(F)cc4)cc3Cl)c2cc1OC (stereo not drawn) [Example 10, N-{3-Chloro-4-[(6,7-dimethoxy-4-quinolyl)oxy]phenyl}-N′-[1-(4-fluorophenyl)ethyl]urea] | 0 (KDR phosphorylation 50% inhibitory concentration [μM]/c-fms phosphorylation 50% inhibitory concentration [μM] was less than 5) | 3
COc1cc2c(Oc3ccc(NC(=O)NC(C)c4ccc(F)c(F)c4)c(F)c3)ccnc2cc1OCCCN1CCOCC1 (stereo not drawn) [Example 68, N-[1-(3,4-Difluorophenyl)ethyl]-N′-(2-fluoro-4-{[6-methoxy-7-(3-morpholinopropoxy)-4-quinolyl]oxy}phenyl)urea] | 0 (KDR phosphorylation 50% inhibitory concentration [μM]/c-fms phosphorylation 50% inhibitory concentration [μM] was less than 5) | 5.6
COc1ccc([C@@H](C)NC(=O)Nc2ccc(Oc3ccnc4cc(OC)c(OC)cc34)cc2)cc1 [Example 54, N-{4-[(6,7-Dimethoxy-4-quinolyl)oxy]phenyl}-N′-[(1R)-1-(4-methoxyphenyl)ethyl]urea] | 1 (when the value was 5 or more) | 574
COc1cc2nccc(Oc3ccc(NC(=O)N[C@H](C)c4cccc(Br)c4)c(C)c3)c2cc1OC [Example 58, N-[(1R)-1-(3-Bromophenyl)ethyl]-N′-{4-[(6,7-dimethoxy-4-quinolyl)oxy]-2-methylphenyl}urea] | 0 (KDR phosphorylation 50% inhibitory concentration [μM]/c-fms phosphorylation 50% inhibitory concentration [μM] was less than 5) | 2.1
COc1cc2nccc(Oc3ccc(NC(=O)N[C@@H](C)c4ccc(F)cc4)c(C)c3C)c2cc1OC [Example 26, N-{4-[(6,7-Dimethoxy-4-quinolyl)oxy]-2,3-dimethylphenyl}-N′-[(1S)-1-(4-fluorophenyl)ethyl]urea] | 1 (when the value was 5 or more) | 155
COc1cc2nccc(Oc3ccc(NC(=O)N[C@H](C)c4ccc(F)cc4)c(Cl)c3)c2cc1OC [Example 6, N-{2-Chloro-4-[(6,7-dimethoxy-4-quinolyl)oxy]phenyl}-N′-[(1R)-1-(4-fluorophenyl)ethyl]urea] | 0 (KDR phosphorylation 50% inhibitory concentration [μM]/c-fms phosphorylation 50% inhibitory concentration [μM] was less than 5) | 1.8
COc1cc2nccc(Oc3ccc(NC(=O)N[C@H](C)c4ccc(F)cc4)c(C)c3C)c2cc1OC [Example 27, N-{4-[(6,7-Dimethoxy-4-quinolyl)oxy]-2,3-dimethylphenyl}-N′-[(1R)-1-(4-fluorophenyl)ethyl]urea] | 0 (KDR phosphorylation 50% inhibitory concentration [μM]/c-fms phosphorylation 50% inhibitory concentration [μM] was less than 5) | 2
COc1cc2nccc(Oc3ccc(NC(=O)NC(C)c4ccc(F)cc4)cc3)c2cc1OC (stereo not drawn) [Example 1, N-{4-[(6,7-Dimethoxy-4-quinolyl)oxy]phenyl}-N′-[1-(4-fluorophenyl)ethyl]urea] | 0 (KDR phosphorylation 50% inhibitory concentration [μM]/c-fms phosphorylation 50% inhibitory concentration [μM] was less than 5) | 1.1
COc1cc2nccc(Oc3ccc(NC(=O)N[C@H](C)c4ccc(F)cc4)cc3OC)c2cc1OC [Example 24, N-{4-[(6,7-Dimethoxy-4-quinolyl)oxy]-3-methoxyphenyl}-N′-[(1R)-1-(4-fluorophenyl)ethyl]urea] | 0 (KDR phosphorylation 50% inhibitory concentration [μM]/c-fms phosphorylation 50% inhibitory concentration [μM] was less than 5) | 2.4
COc1cc2nccc(Oc3cc(C)c(NC(=O)N[C@H](C)c4ccc(F)cc4)cc3C)c2cc1OC [Example 9, N-{4-[(6,7-Dimethoxy-4-quinolyl)oxy]-2,5-dimethylphenyl}-N′-[(1R)-1-(4-fluorophenyl)ethyl]urea] | 0 (KDR phosphorylation 50% inhibitory concentration [μM]/c-fms phosphorylation 50% inhibitory concentration [μM] was less than 5) | 2.7
COc1cc2nccc(Oc3ccc(NC(=O)N[C@H](C)c4cccc(Br)c4)cc3Cl)c2cc1OC [Example 57, N-[(1R)-1-(3-Bromophenyl)ethyl]-N′-{3-chloro-4-[(6,7-dimethoxy-4-quinolyl)oxy]phenyl}urea] | 0 (KDR phosphorylation 50% inhibitory concentration [μM]/c-fms phosphorylation 50% inhibitory concentration [μM] was less than 5) | 3.6

Further lines, results first:

Selection ratio (KDR phosphorylation IC50 / c-fms phosphorylation IC50) | IC50 [nM] | SMILES
3 (when the value was 50 or more) | 526 | COc1cc2nccc(Oc3ccc(NC(=O)NC(C)c4nccs4)cc3OC)c2cc1OC (stereo not drawn) [Example 80, N-{4-[(6,7-Dimethoxy-4-quinolyl)oxy]-3-methoxyphenyl}-N′-[1-(1,3-thiazol-2-yl)ethyl]urea]
1 (when the value was 5 or more) | 17.4 | COc1cc2nccc(Oc3ccc(NC(=O)NC(C)c4nc(C)cs4)cc3F)c2cc1OC (stereo not drawn) [Example 89, N-{4-[(6,7-Dimethoxy-4-quinolyl)oxy]-3-fluorophenyl}-N′-[1-(4-methyl-1,3-thiazol-2-yl)ethyl]urea]
2 (when the value was 10 or more) | 101 | COc1cc2nccc(Oc3ccc(NC(=O)NC(C)c4nccs4)cc3)c2cc1OC (stereo not drawn) [Example 77, N-{4-[(6,7-Dimethoxy-4-quinolyl)oxy]phenyl}-N′-[1-(1,3-thiazol-2-yl)ethyl]urea]
1 (when the value was 5 or more) | 68.8 | COc1cc2nccc(Oc3ccc(NC(=O)N[C@@H](C)c4ccc(F)cc4)c(C)c3)c2cc1OC [Example 14, N-{4-[(6,7-Dimethoxy-4-quinolyl)oxy]-2-methylphenyl}-N′-[(1S)-1-(4-fluorophenyl)ethyl]urea]
2 (when the value was 10 or more) | 310 | COc1cc(Oc2ccnc3cc(OC)c(OC)cc23)ccc1NC(=O)NC(C)c1ncc(C)s1 (stereo not drawn) [Example 105, N-{4-[(6,7-Dimethoxy-4-quinolyl)oxy]-2-methoxyphenyl}-N′-[1-(5-methyl-1,3-thiazol-2-yl)ethyl]urea]
2 (when the value was 10 or more) | 239 | COc1cc2nccc(Oc3ccc(NC(=O)NC(C)c4ncc(C)s4)c(F)c3)c2cc1OC (stereo not drawn) [Example 101, N-{4-[(6,7-Dimethoxy-4-quinolyl)oxy]-2-fluorophenyl}-N′-[1-(5-methyl-1,3-thiazol-2-yl)ethyl]urea]
2 (when the value was 10 or more) | 55.1 | COc1cc2nccc(Oc3ccc(NC(=O)NC(C)c4nccs4)c(F)c3)c2cc1OC (stereo not drawn) [Example 70, N-{4-[(6,7-Dimethoxy-4-quinolyl)oxy]-2-fluorophenyl}-N′-[1-(1,3-thiazol-2-yl)ethyl]urea]
2 (when the value was 10 or more) | 273 | COc1cc2nccc(Oc3cc(C)c(NC(=O)N[C@H](C)c4nccs4)cc3C)c2cc1OC [Example 87, N-{4-[(6,7-Dimethoxy-4-quinolyl)oxy]-2,5-dimethylphenyl}-N′-[(1R)-1-(1,3-thiazol-2-yl)ethyl]urea]
1 (when the value was 5 or more) | 35.6 | COc1cc2nccc(Oc3ccc(NC(=O)N[C@H](C)c4nccs4)c(F)c3)c2cc1OC [Example 72, N-{4-[(6,7-Dimethoxy-4-quinolyl)oxy]-2-fluorophenyl}-N′-[(1R)-1-(1,3-thiazol-2-yl)ethyl]urea]

— patent US7598258B2, “Quinoline derivatives and quinazoline derivatives inhibiting autophosphorylation of macrophage colony stimulating factor receptor” (Kirin Beer Kabushiki Kaisha, priority 2002, dated 2009)
